Columns and labels:
Type in all cases: functional
MDA-MB-435 = assay: Cytotoxicity against human MDA-MB-435 cells assessed as cell growth at 10^-7 M after 48 hrs by SRB assay; settings: MDA-MB-435, 48 h, read-out: Activity
786-0 [1] = assay: Cytotoxicity against human 786-0 cells assessed as cell growth at 10^-6 M after 48 hrs by SRB assay; settings: 786-0, 48 h, read-out: Activity
IGROV-1 = assay: Cytotoxicity against human IGROV1 cells after 48 hrs by SRB assay; settings: IGROV-1, 48 h
HCC 2998 [2] = assay: Cytotoxicity against human HCC2998 cells assessed as cell growth at 10^-8 M after 48 hrs by SRB assay; settings: HCC 2998, 48 h, read-out: Activity
RXF 393 = assay: Cytotoxicity against human RXF393 cells after 48 hrs by SRB assay; settings: RXF 393, 48 h
RPMI-8226 = assay: Cytotoxicity against human RPMI8226 cells assessed as cell growth at 10^-7 M after 48 hrs by SRB assay; settings: RPMI-8226, 48 h, read-out: Activity
[3] = Cytotoxicity against human OVCAR4 cells assessed as cell growth at 10^-7 M after 48 hrs by SRB assay; settings: OVCAR-4, 48 h, read-out: Activity
OVCAR-3 [4] = assay: Cytotoxicity against human OVCAR3 cells assessed as cell growth at 10^-6 M after 48 hrs by SRB assay; settings: OVCAR-3, 48 h, read-out: Activity
COLO 205 = assay: Cytotoxicity against human COLO205 cells assessed as cell growth at 10^-8 M after 48 hrs by SRB assay; settings: COLO 205, 48 h, read-out: Activity
NCI-H23 [5] = assay: Cytotoxicity against human NCI-H23 cells assessed as cell growth at 10^-8 M after 48 hrs by SRB assay; settings: NCI-H23, 48 h, read-out: Activity
786-0 [6] = assay: Cytotoxicity against human 786-0 cells assessed as cell growth at 10^-4 M after 48 hrs by SRB assay; settings: 786-0, 48 h, read-out: Activity
TK-10 = assay: Cytotoxicity against human TK10 cells assessed as cell growth at 10^-8 M after 48 hrs by SRB assay; settings: TK-10, 48 h, read-out: Activity
SF-539 = assay: Cytotoxicity against human SF539 cells after 48 hrs by SRB assay; settings: SF-539, 48 h
SF-295 [7] = assay: Cytotoxicity against human SF295 cells assessed as cell growth at 10^-4 M after 48 hrs by SRB assay; settings: SF-295, 48 h, read-out: Activity
NCI-H522 = assay: Cytotoxicity against human NCI-H522 cells assessed as cell growth at 10^-6 M after 48 hrs by SRB assay; settings: NCI-H522, 48 h, read-out: Activity
SNB-19 [8] = assay: Cytotoxicity against human SNB19 cells assessed as cell growth at 10^-8 M after 48 hrs by SRB assay; settings: SNB-19, 48 h, read-out: Activity
SF-295 [9] = assay: Cytotoxicity against human SF295 cells assessed as cell growth at 10^-6 M after 48 hrs by SRB assay; settings: SF-295, 48 h, read-out: Activity
T47D [10] = assay: Cytotoxicity against human T47D cells assessed as cell growth at 10^-4 M after 48 hrs by SRB assay; settings: read-out: Activity
MDA-MB-231 = assay: Cytotoxicity against human MDA-MB-231 cells assessed as cell growth at 10^-4 M after 48 hrs by SRB assay; settings: MDA-MB-231, 48 h, read-out: Activity
NCI-H322M = assay: Cytotoxicity against human NCI-H322M cells after 48 hrs by SRB assay
SR = assay: Cytotoxicity against human SR cells after 48 hrs by SRB assay
HCC 2998 [11] = assay: Cytotoxicity against human HCC2998 cells assessed as cell growth at 10^-6 M after 48 hrs by SRB assay; settings: HCC 2998, 48 h, read-out: Activity
786-0 [12] = assay: Cytotoxicity against human 786-0 cells assessed as cell growth at 10^-8 M after 48 hrs by SRB assay; settings: 786-0, 48 h, read-out: Activity
CCRF-CEM [13] = assay: Cytotoxicity against human CCRF-CEM cells assessed as cell growth at 10^-8 M after 48 hrs by SRB assay; settings: read-out: Activity
T47D [14] = assay: Cytotoxicity against human T47D cells assessed as cell growth at 10^-8 M after 48 hrs by SRB assay; settings: read-out: Activity
CCRF-CEM [15] = assay: Cytotoxicity against human CCRF-CEM cells assessed as cell growth at 10^-7 M after 48 hrs by SRB assay; settings: read-out: Activity
SK-OV-3 = assay: Cytotoxicity against human SKOV3 cells assessed as cell growth at 10^-7 M after 48 hrs by SRB assay; settings: SK-OV-3, 48 h, read-out: Activity
OVCAR-3 [16] = assay: Cytotoxicity against human OVCAR3 cells after 48 hrs by SRB assay; settings: OVCAR-3, 48 h
PC-3 [17] = assay: Cytotoxicity against human PC3 cells assessed as cell growth at 10^-4 M after 48 hrs by SRB assay; settings: PC-3, 48 h, read-out: Activity
SF-268 = assay: Cytotoxicity against human SF268 cells assessed as cell growth at 10^-6 M after 48 hrs by SRB assay; settings: SF-268, 48 h, read-out: Activity
U-251 = assay: Cytotoxicity against human U251 cells assessed as cell growth at 10^-8 M after 48 hrs by SRB assay; settings: U-251, 48 h, read-out: Activity
SNB-19 [18] = assay: Cytotoxicity against human SNB19 cells after 48 hrs by SRB assay; settings: SNB-19, 48 h
SK-MEL-5 = assay: Cytotoxicity against human SK-MEL-5 cells after 48 hrs by SRB assay; settings: SK-MEL-5, 48 h
PC-3 [19] = assay: Cytotoxicity against human PC3 cells assessed as cell growth at 10^-6 M after 48 hrs by SRB assay; settings: PC-3, 48 h, read-out: Activity
SNB-19 [20] = assay: Cytotoxicity against human SNB19 cells assessed as cell growth at 10^-6 M after 48 hrs by SRB assay; settings: SNB-19, 48 h, read-out: Activity
[21] = Cytotoxicity against human Hs578T cells assessed as cell growth at 10^-6 M after 48 hrs by SRB assay; settings: Hs-578T, read-out: Activity
NCI-H23 [22] = assay: Cytotoxicity against human NCI-H23 cells assessed as cell growth at 10^-4 M after 48 hrs by SRB assay; settings: NCI-H23, 48 h, read-out: Activity
OVCAR-3 [23] = assay: Cytotoxicity against human OVCAR3 cells assessed as cell growth at 10^-7 M after 48 hrs by SRB assay; settings: OVCAR-3, 48 h, read-out: Activity
HOP-92 = assay: Cytotoxicity against human HOP92 cells assessed as growth inhibition at 10 uM after 48 hrs by SRB assay; settings: HOP-92, 48 h, read-out: GI
[24] = read-out: LC50 (the source's name)

C=CCn1c(C)nc2ccc(Nc3nc(Nc4ccc(F)cc4)nc4ccccc34)cc21
growth at 0.1 µM (MDA-MB-435): 100% | growth at 1 µM (786-0 [1]): 96% | GI50 (IGROV-1): 6.09 µM | LC50 (IGROV-1): 98.7 µM | TGI (IGROV-1): 27.2 µM | growth at 0.01 µM (HCC 2998 [2]): 95% | GI50 (RXF 393): 1.23 µM | TGI (RXF 393): 2.57 µM | CC50 (RXF 393; [24]): 5.38 µM | growth at 0.1 µM (RPMI-8226): 103% | growth at 0.1 µM [3]: 95% | growth at 1 µM (OVCAR-3 [4]): 97% | growth at 0.01 µM (COLO 205): 97% | growth at 0.01 µM (NCI-H23 [5]): 94% | growth at 100 µM (786-0 [6]): -71% | growth at 0.01 µM (TK-10): 99% | GI50 (SF-539): 12.3 µM | LC50 (concentration giving 50% net cell kill) (SF-539): 53.9 µM | TGI (SF-539): 25.7 µM | growth at 100 µM (SF-295 [7]): -87% | growth at 1 µM (NCI-H522): 91% | growth at 0.01 µM (SNB-19 [8]): 95% | growth at 1 µM (SF-295 [9]): 91% | growth at 100 µM (T47D [10]): -13% | growth at 100 µM (MDA-MB-231): -37% | GI50 (NCI-H322M): 6.16 µM | LC50 (NCI-H322M): 55.1 µM | TGI (NCI-H322M): 21.5 µM | GI50 (SR): 2.26 µM | LC50 (SR): > 100 µM | TGI (SR): 5.93 µM | growth at 1 µM (HCC 2998 [11]): 98% | growth at 0.01 µM (786-0 [12]): 93% | growth at 0.01 µM (CCRF-CEM [13]): 99% | growth at 0.01 µM (T47D [14]): 85% | growth at 0.1 µM (CCRF-CEM [15]): 102% | growth at 0.1 µM (SK-OV-3): 112% | GI50 (OVCAR-3 [16]): 5.04 µM | LC50 (OVCAR-3 [16]): 46.3 µM | TGI (OVCAR-3 [16]): 17.8 µM | growth at 100 µM (PC-3 [17]): -79% | growth at 1 µM (SF-268): 94% | growth at 0.01 µM (U-251): 97% | GI50 (SNB-19 [18]): 9 µM | TGI (SNB-19 [18]): 23.8 µM | CC50 (SNB-19 [18]; [24]): 58.6 µM | GI50 (SK-MEL-5): 1.36 µM | LC50 (SK-MEL-5): 5.14 µM | TGI (SK-MEL-5): 2.64 µM | growth at 1 µM (PC-3 [19]): 84% | growth at 1 µM (SNB-19 [20]): 86% | growth at 1 µM [21]: 86% | growth at 100 µM (NCI-H23 [22]): -39% | growth at 0.1 µM (OVCAR-3 [23]): 98%

C=CCn1c(C)nc2ccc(Nc3nc(Sc4ccc(N)cc4)nc4ccccc34)cc21
inhibition of growth at 10 µM (HOP-92): 30%

C=CCn1c(C)nc2ccc(Nc3nc(Nc4ncccn4)nc4ccccc34)cc21
inhibition of growth at 10 µM (HOP-92): 30%
